# In US7005429B2, “Method of treating estrogen receptor positive carcinoma with 17 α-dihydroequilin” (Wyeth, priority 1991, dated 2006):
# Counter-ions that a name gives are not always drawn.
# Legend:
# [1] = system: DMBA induced mammary carcinoma; assay: DMBA induced mammary carcinoma in rats, tumor size; type: in vivo, Sprague-Dawley female rats; conditions: rat
# Protocol: Rats were treated either with vehicle (control), 17α-dihydroequilin sulfate, or tamoxifen. In addition, one group of rats were ovariectomized after tumor development and then treated with vehicle. The animals were treated for a 4 week period. Tumor volumes were measured weekly.
# [2] = system: MCF-7 (estrogen receptor positive) human breast cancer cell line; assay: Cell cycle phase distribution by flow cytometric DNA analysis in MCF-7 cells; type: cell-based; conditions: for shift of cells from the resting G1 phase to the proliferative S phase (estrogenic activity): compound alone, 0.1 μM; for prevention of E2 induced proliferation (shift from G1 to S phase): in combination with E2; for % G1 / % G2/M / % S: 24 hours
# Protocol: (§1) In the in vitro standard pharmacological test procedure, 17α-dihydroequilin was evaluated as a representative compound in MCF-7 (estrogen receptor positive) and […] (estrogen receptor negative) human breast cancer cell lines to determine the effect of the compounds of this invention on cell proliferation as measured by the percent of the cells present in the G1, S, and G2/M phases of the cell cycle. Briefly, the cell lines were plated in T-25 tissue culture flasks at an initial density of between 50,000 and 100,000 cells/flask and incubated for a period of 24 hours in phenol-red free IMEM medium supplemented with dextran-coated-charcoal stripped fetal bovine serum (10%), glutamine (5 mg/mL) and gentamycin sulfate (2 mg/mL).
# [3] = system: MDA-231 (estrogen receptor negative) human breast cancer cell line; assay: Cell cycle phase distribution by flow cytometric DNA analysis in MDA-231 cells; type: cell-based; conditions: for % G1 / % G2/M / % S: 24 hours
# Protocol: as §1
# [4] = rat; 200 μg/day for 3 weeks; cited from earlier work
# [5] = system: estrogen receptor positive MCF-7 human breast cancer cells; conditions: prevents cells from entering the S phase; cited from earlier work
# [6] = test compound (0.1 nM) in combination with E2 (1 nM)
smiles,measurement,setting,value
"C[C@]12CC[C@H]3C(=CCc4cc(OS(=O)(=O)O)ccc43)[C@@H]1CC[C@H]2O [17α-DHEQ-S, 17α-Dihydroequilin sulfate]","percent change of tumor size from week 0, Week 1",[1]; daily dose 0.5 mg/kg,47.2%
same,"percent change of tumor size from week 0, Week 2",[1]; daily dose 0.5 mg/kg,75.9%
same,"percent change of tumor size from week 0, Week 3",[1]; daily dose 0.5 mg/kg,59.4%
same,"percent change of tumor size from week 0, Week 4",[1]; daily dose 0.5 mg/kg,111.6%
same,"percent change of tumor size from week 0, Week 1",[1]; daily dose 5.0 mg/kg,−18.2%
same,"percent change of tumor size from week 0, Week 2",[1]; daily dose 5.0 mg/kg,−21.2%
same,"percent change of tumor size from week 0, Week 3",[1]; daily dose 5.0 mg/kg,−8.2%
same,"percent change of tumor size from week 0, Week 4",[1]; daily dose 5.0 mg/kg,3.1%
same,"percent change of tumor size from week 0, Week 1",[1]; daily dose 25.0 mg/kg,−49.7%
same,"percent change of tumor size from week 0, Week 3",[1]; daily dose 25.0 mg/kg,−51.2%
same,"percent change of tumor size from week 0, Week 4",[1]; daily dose 25.0 mg/kg,−46.7%
C[C@]12CC[C@H]3C(=CCc4cc(O)ccc43)[C@@H]1CC[C@H]2O [17α-dihydroequilin],shift of cells from the resting G1 phase to the proliferative S phase (estrogenic activity),[2],did not cause a shift of cells from the resting G1 phase to the proliferative S phase
same,prevention of E2 induced proliferation (shift from G1 to S phase),[2],prevented the E2 induced proliferation
same,% G1,[2]; [6],42%
same,% G2/M,[2]; [6],15%
same,% S,[2]; [6],42%
same,% G1,[3]; [6],26%
same,% G2/M,[3]; [6],13%
same,% S,[3]; [6],60%
"C[C@]12CC[C@@H]3c4ccc(O)cc4CC[C@H]3[C@@H]1CC[C@@H]2O [E2, 17β-estradiol]",shift of cells from the G1 phase to the S phase (cell proliferation),[2]; E2 alone,caused cell proliferation
same,% G1,[2]; E2 alone,29%
same,% G2/M,[2]; E2 alone,5%
same,% S,[2]; E2 alone,66%
same,shift of cells from the G1 phase to the S phase (cell proliferation),[3]; E2 alone,this shift was not observed
same,% G1,[3]; E2 alone,38%
same,% G2/M,[3]; E2 alone,17%
same,% S,[3]; E2 alone,45%
"CC/C(=C(\c1ccccc1)c1ccc(OCCN(C)C)cc1)c1ccccc1 [Tamoxifen, Z-1-(4β-dimethylaminoethoxyphenyl) 1,2-diphenyl but-1-ene citratel]",reduction in tumor size (in words),[1]; 4 week treatment,caused a reduction in tumor size
same,"percent change of tumor size from week 0, Week 2",[1]; daily dose 2.0 mg/kg,−18.7%
same,"percent change of tumor size from week 0, Week 3",[1]; daily dose 2.0 mg/kg,−28.5%
same,"percent change of tumor size from week 0, Week 4",[1]; daily dose 2.0 mg/kg,−20.1%
same,accumulation of administered [3H]-E2 in tissue,[4],"prevents the accumulation of administered [^3H]-E2 in uterine, vaginal, and mammary tumor tissue"
same,shift of cells from the resting G1 phase to the proliferative S phase (estrogenic activity),[2],A similar result was observed
same,prevention of E2 induced proliferation (shift from G1 to S phase),[2],A similar result was obtained
same,% G1,[2]; [6],40%
same,% G2/M,[2]; [6],14%
same,% S,[2]; [6],46%
same,% G1,[3]; [6],28%
same,% G2/M,[3]; [6],14%
same,% S,[3]; [6],58%
same,inhibition of E2 stimulated cell growth,[5],inhibit cell E2 stimulated cell growth
